Legend:
[1] = tested on: Plasmodium falciparum; assay: Antimalarial activity against Plasmodium falciparum assessed as reduction in parasite growth incubated for 48 hrs by Giemsa staining based analysis; assay type: functional, organism-based
[2] = tested on: Plasmodium falciparum; assay: Antiplasmodial activity against Plasmodium falciparum Dd2 assessed as reduction in parasitic growth incubated for 48 hrs by SYBR Green staining based fluorescence analysis; assay type: functional, organism-based; conditions: Dd2, 48 h
[3] = tested on: Plasmodium falciparum; assay: Antimalarial activity against Plasmodium falciparum 3D7 assessed as reduction in parasite growth incubated for 48 hrs by Giemsa-staining counting based microscopic analysis; assay type: functional, organism-based; conditions: 3D7, 48 h
[4] = tested on: Plasmodium falciparum; assay: Antimalarial activity against Plasmodium falciparum K1 assessed as reduction in parasitic growth incubated for 48 hrs by Giemsa-staining counting based microscopic analysis; assay type: functional, organism-based; conditions: K1, 48 h
[5] = Cytotoxicity against African monkey Vero cells assessed as reduction in cell viability incubated for 72 hrs by MTT assay; assay type: toxicity, cell-based; conditions: chlorocebus sabaeus
[6] = Cytotoxicity against African green monkey Vero cells by MTT assay; assay type: toxicity, cell-based; conditions: African green monkey (Chlorocebus sabaeus)
[7] = tested on: Plasmodium falciparum; assay: Antiplasmodial activity against Plasmodium falciparum NF54; assay type: functional, organism-based
[8] = tested on: Plasmodium berghei; assay: Antimalarial activity against Plasmodium berghei ANKA; assay type: functional, organism-based
[9] = Cytotoxicity against African green monkey Vero cells assessed as reduction in cell viability incubated for 48 hrs by MTT assay; assay type: toxicity, cell-based; conditions: chlorocebus sabaeus
[10] = tested on: Plasmodium falciparum; assay: Antimalarial activity against chloroquine-sensitive Plasmodium falciparum NF54 assessed as reduction in cell growth; assay type: functional, organism-based
[11] = tested on: Plasmodium falciparum; assay: Antimalarial activity against chloroquine-sensitive Plasmodium falciparum 3D7 by SYBR green I assay; assay type: functional, organism-based
[12] = tested on: Plasmodium falciparum; assay: Antimalarial activity against chloroquine-resistant Plasmodium falciparum Dd2 assessed as reduction in parasitic growth incubated for 72 hrs by Giemsa-staining based microscopic analysis; assay type: functional, organism-based; conditions: Dd2, 72 h
[13] = tested on: Plasmodium falciparum; assay: Antiplasmodial activity against Plasmodium falciparum 3D7 assessed as inhibition of parasitic growth; assay type: functional, organism-based
[14] = tested on: Plasmodium falciparum; assay: Antimalarial activity against Plasmodium falciparum Dd2 assessed as reduction in parasitic growth; assay type: functional, organism-based
[15] = tested on: Plasmodium falciparum; assay: Antimalarial activity against Plasmodium falciparum D6 assessed as reduction in parasite growth incubated for 48 hrs by LDH assay; assay type: functional, organism-based; conditions: D6, 48 h
[16] = tested on: Plasmodium falciparum; assay: Antimalarial activity against Plasmodium falciparum W2 assessed as reduction in parasite growth incubated for 48 hrs by LDH assay; assay type: functional, organism-based; conditions: W2, 48 h
[17] = Cytotoxicity against African green monkey Vero cells; assay type: toxicity, cell-based; conditions: chlorocebus sabaeus
[18] = tested on: Plasmodium falciparum; assay: Antimalarial activity against Plasmodium falciparum assessed as parasitic growth inhibition; assay type: functional, organism-based
[19] = tested on: Plasmodium falciparum; assay: Antimalarial activity against chloroquine-resistant Plasmodium falciparum W2 assessed as growth inhibition incubated for 48 hrs by flow cytometry based analysis; assay type: functional, organism-based; conditions: W2, 48 h
[20] = tested on: Plasmodium falciparum; assay: Antimalarial activity against chloroquine-sensitive Plasmodium falciparum 3D7 assessed as reduction in parasite growth incubated for 48 hrs by SYBR green assay; assay type: functional, organism-based; conditions: 3D7, 48 h
[21] = tested on: Plasmodium falciparum; assay: Antimalarial activity against multi-drug resistant Plasmodium falciparum K1 assessed as reduction in parasite growth incubated for 48 hrs by SYBR green assay; assay type: functional, organism-based; conditions: K1, 48 h
[22] = tested on: HepG2; assay: Cytotoxicity against human HepG2 cells assessed as reduction in cell viability incubated for 24 hrs by MTT assay; assay type: functional
[23] = tested on: Plasmodium falciparum; assay: Antiplasmodial activity against Plasmodium falciparum 3D7 assessed as reduction in parasite growth by Lactate dehydrogenase assay; assay type: functional, organism-based
[24] = tested on: Plasmodium falciparum; assay: Antimalarial activity against Plasmodium falciparum 3D7 assessed as inhibition of parasite growth incubated for 96 hrs; assay type: functional, organism-based; conditions: 3D7, 96 h
[25] = tested on: Plasmodium falciparum; assay: Antimalarial activity against chloroquine-resistant Plasmodium falciparum Dd2 assessed as inhibition of parasite growth; assay type: functional, organism-based
[26] = tested on: Plasmodium falciparum; assay: Antiplasmodial activity against chloroquine-sensitive Plasmodium falciparum 3D7 assessed as parasitic growth inhibition incubated for 72 hrs by SYBR Green staining based fluorescence analysis; assay type: functional, organism-based; conditions: 3D7, 72 h
[27] = tested on: Plasmodium falciparum; assay: Antiplasmodial activity against chloroquine-resistant Plasmodium falciparum W2 assessed as parasitic growth inhibition incubated for 72 hrs by SYBR Green staining based fluorescence analysis; assay type: functional, organism-based; conditions: W2, 72 h
[28] = Cytotoxicity against African green monkey Vero cells assessed as reduction in cell viability measured after 24 hrs; assay type: toxicity, cell-based; conditions: African green monkey (Chlorocebus sabaeus)

SMILES: CC1=NC(=S)N(Nc2ccnc3cc(Cl)ccc23)C(=O)C1
- IC50 [1]: 11900 nM

SMILES: COc1ccc2nc(/C=C/c3ccncc3)cc(N3CCOCC3)c2c1
- IC50 [2]: > 10000 nM

SMILES: CCN(CC)CCCC(C)Nc1ccnc2cc(Cl)ccc12 (stereo unspecified) [CHLOROQUINE]
- EC50 [3]: 2 nM
- EC50 [4]: 330 nM
- CC50 at 72 h [5]: 86800 nM

SMILES: CC1(C)c2ccccc2-c2cc(Cl)c(NC(=O)CNCCCNc3ccnc4cc(Cl)ccc34)cc21
- IC50 [6]: 6330 nM
- IC50 [7]: 270 nM

SMILES: COc1ccc2c(c1)C[C@H](Nc1ccnc3cc(Cl)ccc13)C2
- IC50 [8]: 590 nM

SMILES: COc1ccc(/C(C)=N/C(=S)NNc2ccnc3cc(Cl)ccc23)cc1OC
- IC50 [1]: 38700 nM

SMILES: CCOC(=O)c1nn(CCNc2ccnc3cc(Cl)ccc23)c2c1C(c1ccccc1)C(C#N)=C(N)O2 (stereo unspecified)
- EC50 [3]: 190 nM
- EC50 [4]: 250 nM
- CC50 at 48 h [9]: 103000 nM

SMILES: COc1ccc(/C(C)=N\c2ccccc2Nc2ccnc3cc(Cl)ccc23)cc1OC
- IC50 [1]: 49700 nM

SMILES: COc1cc2c(cc1OC)CC(Nc1ccnc3cc(Cl)ccc13)C2
- IC50 [8]: 390 nM

SMILES: C#Cc1ccc(-c2cn(CCNc3ccnc4cc(Cl)ccc34)nn2)cc1F
- IC50 [10]: 150 nM

SMILES: COc1ccc2nc(/C=C/c3ccncc3)cc(NCCN(C)C)c2c1
- IC50 [2]: 33 nM

SMILES: COc1ccc2nc(/C=C/c3ccncc3)cc(NC3CCCCC3)c2c1
- IC50 [2]: 277 nM

SMILES: COc1ccc2nc(/C=C/c3ccncc3)cc(N3CCN(C)CC3)c2c1
- IC50 [2]: 610 nM

SMILES: CCCCCCCCCCCC(=O)NCCCC(C)Nc1ccnc2cc(Cl)ccc12 (stereo unspecified)
- IC50 [11]: 45 nM
- IC50 [12]: 160000 nM

SMILES: COc1ccc2nc(/C=C/c3ccncc3)cc(Nc3ccccc3)c2c1
- IC50 [2]: 965 nM

SMILES: CC(CCCNCc1ccc(-c2csc3ccc(F)cc23)cc1)Nc1ccnc2cc(Cl)ccc12 (stereo unspecified)
- IC50 [13]: 82.3 nM
- IC50 [14]: 187 nM

SMILES: N=C(N=C(N)N)SCCNc1cc(C(F)(F)F)nc2c(C(F)(F)F)cccc12
- IC50 [15]: 7550 nM
- IC50 [16]: 8040 nM
- CC50 [17]: > 9420 nM

SMILES: O=C(CNCCCNc1ccnc2cc(Cl)ccc12)Nc1cc2c(cc1Cl)-c1ccccc1C2
- IC50 [6]: 11200 nM
- IC50 [7]: 346 nM

SMILES: CCOC(=O)c1nn(CCNc2ccnc3cc(Cl)ccc23)c2c1C(c1ccc(CC)cc1)C(C#N)=C(N)O2 (stereo unspecified)
- EC50 [3]: 13 nM
- EC50 [4]: 20 nM
- CC50 at 48 h [9]: 17600 nM

SMILES: CCCCC1(CCCC)c2ccccc2-c2cc(Cl)c(NC(=O)CNCCCNc3ccnc4cc(Cl)ccc34)cc21
- IC50 [6]: 15900 nM
- IC50 [7]: 139 nM

SMILES: Clc1ccc2c(NNc3ccncc3)ccnc2c1
- IC50 [18]: 3750 nM

SMILES: C[C@@H]1CC[C@H]2[C@@H](C)C(=O)O[C@@H]3O[C@@]4(C)CC[C@@H]1[C@]32OO4 [ARTEMISININ]
- EC50 [3]: 1 nM
- EC50 [4]: 1 nM
- CC50 at 48 h [9]: 435000 nM
- IC50 [19]: 5 nM

SMILES: CCN(CC)CC#CCNc1ccnc2cc(Cl)ccc12
- IC50 [20]: 46 nM
- IC50 [21]: 50 nM
- MLD50 [22]: 1481 µM

SMILES: C[C@H]1[C@H](OC(=O)CCC(=O)O)O[C@@H]2O[C@@]3(C)CC[C@H]4[C@H](C)CC[C@@H]1[C@@]24OO3 [ARTESUNATE]
- IC50 [10]: < 5200 nM

SMILES: COc1ccc(OC)c2c1CC(Nc1ccnc3cc(Cl)ccc13)C2
- IC50 [8]: 480 nM

SMILES: COC(=O)/C=C/c1cccc(Nc2ccnc3cc(Cl)ccc23)c1
- IC50 [23]: 1810 nM

SMILES: O=C(O)/C=C/c1cccc(Nc2ccnc3cc(Cl)ccc23)c1
- IC50 [23]: 9630 nM

SMILES: CN(CCCCCCCCNc1ccnc2ccccc12)Cc1ccc(-c2ccc(-c3ccc(C#N)cc3)s2)cc1
- IC50 [13]: 120 nM
- IC50 [14]: 71.5 nM

SMILES: O=C(O)CCCCCCCCCCCNc1ccnc2cc(Cl)ccc12
- IC50 [24]: 31 nM
- IC50 [25]: 4000 nM

SMILES: Nc1ccccc1Nc1ccnc2cc(Cl)ccc12
- IC50 [1]: 35300 nM

SMILES: COC(=O)/C=C/c1ccccc1Nc1ccnc2cc(OC)ccc12
- IC50 [23]: 15400 nM

SMILES: CCOC(=O)c1nn(CCNc2ccnc3cc(Cl)ccc23)c2c1C(C(C)C)C(C#N)=C(N)O2 (stereo unspecified)
- EC50 [3]: 3390 nM
- EC50 [4]: 300 nM
- CC50 at 48 h [9]: 86100 nM

SMILES: CCCCCCCC(=O)NCCCC(C)Nc1ccnc2cc(Cl)ccc12 (stereo unspecified)
- IC50 [11]: 51 nM
- IC50 [12]: 109000 nM

SMILES: COC(=O)/C=C/c1ccccc1Nc1ccnc2cc(Cl)ccc12
- IC50 [23]: 2320 nM

SMILES: OB1OCc2ccc(OCc3cn(CCCNc4ccnc5cc(Cl)ccc45)nn3)cc21
- IC50 [26]: 4130 nM
- IC50 [27]: 3910 nM
- IC50 at 24 h [28]: > 100000 nM

SMILES: C/C(=N/c1ccccc1Nc1ccnc2cc(Cl)ccc12)c1ccc2ccccc2c1
- IC50 [1]: 77600 nM

Source: ChEMBL document CHEMBL5344418, “Recent developments in antimalarial activities of 4-aminoquinoline derivatives” (Eur J Med Chem, 2023)
